Source: patent US6335436B1, “Oligonucleotides active against drug-resistant bacteria” (priority 1995, dated 2002)

Columns and labels:
Assay type in all cases: cell-based, Mycobacterium smegmatis
M. smegmatis ATCC 607 [1] = test: Inhibition of M. smegmatis growth in broth cultures (cell counts); conditions: for Cell Numbers per ml × 10^6: no ODS
M. smegmatis ATCC 607 [2] = test: MIC of ethambutol in the presence of oligodeoxynucleotide phosphorothioates in broth cultures; conditions: Mycolicibacterium smegmatis, ATCC607, 336 h, read-out: MIC of ethambutol
M. smegmatis mc^2155 = test: as above; conditions: Mycolicibacterium smegmatis, 336 h, no ODS, at least 99% inhibition of cell growth during two weeks

N[C@@H]1CONC1=O [D-cycloserine]
Cell Numbers per ml × 10^6 (M. smegmatis ATCC 607 [1]; Table IV, free D-cycloserine 1 μg/ml alone, 24 hrs): 617 × 10^6 cells per ml | Cell Numbers per ml × 10^6 (M. smegmatis ATCC 607 [1]; Table IV, free D-cycloserine 1 μg/ml alone, 48 hrs): 549 × 10^6 cells per ml | Cell Numbers per ml × 10^6 (M. smegmatis ATCC 607 [1]; Table IV, free D-cycloserine 1 μg/ml alone, 72 hrs): 504 × 10^6 cells per ml | Cell Numbers per ml × 10^6 (M. smegmatis ATCC 607 [1]; Table IV, free D-cycloserine 5 μg/ml alone, 24 hrs): 551 × 10^6 cells per ml | Cell Numbers per ml × 10^6 (M. smegmatis ATCC 607 [1]; Table IV, free D-cycloserine 5 μg/ml alone, 48 hrs): 482 × 10^6 cells per ml | Cell Numbers per ml × 10^6 (M. smegmatis ATCC 607 [1]; Table IV, free D-cycloserine 5 μg/ml alone, 72 hrs): 420 × 10^6 cells per ml | Cell Numbers per ml × 10^6 (M. smegmatis ATCC 607 [1]; Table IV, free D-cycloserine 30 μg/ml alone, 24 hrs): 363 × 10^6 cells per ml | Cell Numbers per ml × 10^6 (M. smegmatis ATCC 607 [1]; Table IV, free D-cycloserine 30 μg/ml alone, 48 hrs): 291 × 10^6 cells per ml | Cell Numbers per ml × 10^6 (M. smegmatis ATCC 607 [1]; Table IV, free D-cycloserine 30 μg/ml alone, 72 hrs): 236 × 10^6 cells per ml | inhibition of growth (M. smegmatis ATCC 607 [1]; free D-cycloserine in liquid medium, 1.0 μg/ml): minimal inhibition of growth | inhibition of M. smegmatis growth (M. smegmatis ATCC 607 [1]; free D-cycloserine in liquid medium, 10-30 μg/ml): significant inhibition

CC[C@@H](CO)NCCN[C@@H](CC)CO [Ethambutol, ethambutol]
Cell Numbers per ml × 10^6 (M. smegmatis ATCC 607 [1]; Table I, ethambutol 0.5 ug/ml alone, 24 hrs): 71 × 10^6 cells per ml | Cell Numbers per ml × 10^6 (M. smegmatis ATCC 607 [1]; Table I, ethambutol 0.5 ug/ml alone, 48 hrs): 240 × 10^6 cells per ml | Cell Numbers per ml × 10^6 (M. smegmatis ATCC 607 [1]; Table I, ethambutol 0.5 ug/ml alone, 72 hrs): 411 × 10^6 cells per ml | Cell Numbers per ml × 10^6 (M. smegmatis ATCC 607 [1]; Table I, ethambutol 1 ug/ml alone, 24 hrs): 39 × 10^6 cells per ml | Cell Numbers per ml × 10^6 (M. smegmatis ATCC 607 [1]; Table I, ethambutol 1 ug/ml alone, 48 hrs): 109 × 10^6 cells per ml | Cell Numbers per ml × 10^6 (M. smegmatis ATCC 607 [1]; Table I, ethambutol 1 ug/ml alone, 72 hrs): 172 × 10^6 cells per ml | Cell Numbers per ml × 10^6 (M. smegmatis ATCC 607 [1]; Table I, ethambutol 5 ug/ml alone, 24 hrs): 25 × 10^6 cells per ml | Cell Numbers per ml × 10^6 (M. smegmatis ATCC 607 [1]; Table I, ethambutol 5 ug/ml alone, 48 hrs): 68 × 10^6 cells per ml | Cell Numbers per ml × 10^6 (M. smegmatis ATCC 607 [1]; Table I, ethambutol 5 ug/ml alone, 72 hrs): 111 × 10^6 cells per ml | Cell Numbers per ml × 10^6 (M. smegmatis ATCC 607 [1]; Table III, ethambutol 0.5 μg/ml alone, 24 hrs): 77 × 10^6 cells per ml | Cell Numbers per ml × 10^6 (M. smegmatis ATCC 607 [1]; Table III, ethambutol 0.5 μg/ml alone, 48 hrs): 189 × 10^6 cells per ml | Cell Numbers per ml × 10^6 (M. smegmatis ATCC 607 [1]; Table III, ethambutol 0.5 μg/ml alone, 72 hrs): 388 × 10^6 cells per ml | MIC (M. smegmatis ATCC 607 [2]): 25 µg/mL | MIC (M. smegmatis mc^2155): 30 µg/mL
